These results are taken from patent US7439251B2, “Methods and compositions for treatment of central and peripheral nervous system disorders and novel compounds useful therefor” (Israel Institute for Biological Research, priority 2002, dated 2008).

Positions count from the first letter of the chain named. Where only a bound is given, the exact number is not on record here.

The test system of data set [1] is rat pheochromocytoma cells transfected with M1 mAChR. In words: Neurite outgrowth in rat pheochromocytoma cells transfected with M1 mAChR. Type of data set: cell-based. The following applies: 24 hrs, without neurotrophins.
Experimental: For determination of neurite outgrowth, cells plated in six-well plates were used 3-5 days after plating. Growth factors were added 1 day after plating and muscarinic agonists were added for the last 24 hrs.
Cells were observed under an inverted microscope. The percent of cells with neurite longer than cell diameter were scored in three random fields of several hundred cells from each well. Results were expressed as a percent of cells with neurites. Treatments were performed in triplicate cells. Both NGF (50 ng/ml) and EGF (100 ng/ml) were added 1 day after plating. Muscarinic agonists were added 24 hours before scoring.
Data set [2] deals with rat pheochromocytoma cells transfected with the M1 mAChR.
The nature of data set [3]: Pharmacokinetic study in rats. Type of data set: in vivo, rat. The following applies: for bioavailability: rat, plasma, Rats, po, read-out: Bioavailability (% F). The source says:
(§1) The results of the PK profile of AF292 in rats and Beagle dogs (overnight fasting; drug administered in water solution; gavage) are listed in Table 1.

In data set [4] the test system is cortical and hippocampal cell culture. Briefly: Protection against NMDA-induced cell death in primary rat brain cultures. The following applies: for neuroprotective potency against 200 μM NMDA, compared with 20 μM MK801: 100 μM agonist; for prevention of NMDA-induced cell death: 20-24 hrs.
The target of another data set is T1, M1 mAChR (Rattus norvegicus, UniProt P08482).
T1 construct: expressed in transfected cells
T1 sequence (P08482 1-460): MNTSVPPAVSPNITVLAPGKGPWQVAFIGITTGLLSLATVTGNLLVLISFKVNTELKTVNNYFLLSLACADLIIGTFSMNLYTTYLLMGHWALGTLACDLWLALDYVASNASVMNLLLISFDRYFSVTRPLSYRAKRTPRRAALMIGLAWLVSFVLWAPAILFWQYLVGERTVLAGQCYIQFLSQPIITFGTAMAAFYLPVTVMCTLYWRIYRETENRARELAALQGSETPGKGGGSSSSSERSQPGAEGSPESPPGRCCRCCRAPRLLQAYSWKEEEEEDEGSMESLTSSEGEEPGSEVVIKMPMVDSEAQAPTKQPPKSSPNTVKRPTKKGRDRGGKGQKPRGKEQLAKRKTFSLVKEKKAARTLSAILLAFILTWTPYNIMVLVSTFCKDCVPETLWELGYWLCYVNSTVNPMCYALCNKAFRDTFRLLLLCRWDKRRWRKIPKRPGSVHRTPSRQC
In words: α-APPs secretion in cell cultures stably transfected with M1 mAChR. In kind it is cell-based. The following applies: for α-APPs secretion (% of max CCh): maximal response vs 10^−4 M carbachol. The method, then: Cells were plated in 6 well culture plates and used at the age of 3-5 days after plating. […] Cells exposed to medium alone are referred as controls.
Cell supernatants were collected into Eppendorff tubes containing a cocktail of protease intubitors (5 units/ml aprotinin, […], 5 mg/ml leupeptin and 10^−4 M Phenylmethylsulfonylfluoride (PMSF, a protease inhibitor); Sigma, USA). The collected media were concentrated with Centricon tubes (Amicon, Beverly, Mass., USA) and kept frozen for α-APPs secretion determination. Equal amounts of protein (50-100 μg) were loaded and separated on 10% sodium dodecyl sulfate-polyacrylamide gel electrophoresis (SDS-PAGE) Followed by western blotting onto nitrocellulose membrane, blocked by fat-free milk, and probed for 24 hours at 4° C., with anti-Alzheimer's precursor protein, A4 monoclonal antibody 22C11 (0.25 μg/ml; Boehringer Mannheim, Germany). The nitrocellulose membranes were washed and incubated for 2 hours at room temperature with peroxidase-linked goat anti-mouse IgG antibodies (Jackson Immunoresearch, USA), followed by extensive washout and staining with enhanced chemiluminescence detection system (Amersham). Quantitative evaluation of the immunoreactive bands, on the exposed films, was performed by video-imaging densitometry (Gel-aid software; Galai Co., Israel). APPs levels were expressed as x-fold increase over basal levels.

A short description of data set [5]: Passive avoidance in trihexyphenidyl treated rats. Type of data set: in vivo, rat. The following applies: for Trihexyphenidyl-rats-Passive avoidance, effect: AF292 0.03, 0.05, 0.1, 0.3, 0.5 mg/kg p.o., AF267B 0.5, 1, 5; for Trihexyphenidyl-rats-Passive avoidance, MED: p.o. The source says: Trihexyphenidyl is a selective M1 muscarinic antagonist that crosses the blood brain barrier and induces memory and learning impairments (Bymaster et al. J Pharmacol Exp Ther 267: 16-24, 1993. Roldan et al Neurosci. Lett. 230: 93-96, 1997; Kimura et al Brain Res. 834: 6-12, 1999).
Naive Wistar rats were used in the experiments below. The passive avoidance (PA) task is comprised of training (acquisition) phase and a retention phase. In the training procedure each rat was individually placed in the small illuminated compartment and after 60 sec. of familiarization/adaptation, the door to the large compartment was opened and the latency to enter was measured (Initial Latency). Immediately following entry into the dark compartment, the door was closed and inescapable foot shock (0.6 mA for 3 sec) was delivered through the grid floor. A cutoff point of 180 sec was used for initial latency. […] After the acquisition trial the rat was returned to its home cage. Retention of the passive avoidance task was measured 24 h later, by again placing the rat in the light compartment and after a 60 sec adaptation interval, the door was opened and the latency to renter the dark compartment was measured. A cutoff point of 300 sec was used for retention latency.

Data set [6] addresses T2, human M1 receptor (Homo sapiens, UniProt P11229).
T2 construct: expressed in transfected cells
T2 sequence (P11229 1-460): T1 sequence (P08482 1-460) with V5A, S254T, S309P, K320R, G337A, V413I
In words: Arachidonic acid (AA) release, human M1. Type of data set: cell-based.

Data set [7] is described as follows: Pharmacokinetic study in dogs. The following applies: for bioavailability: Beagle, dog, plasma, po, read-out: Bioavailability (% F). In kind it is in vivo, Beagle dog.
Excerpt: as §1

In the next data set the test system is tau. Briefly: Tau phosphorylation, AT8 immunoblot. In kind it is cell-based. The following applies: 100 μM; to the control level. The text has this: Following the experimental design of Sadot et al., J.Neurochem. […] By linking an M1 agonist to an antioxidant moiety tau phophorylation may be decreased, providing a new therapeutic strategy in a variety of CNS disease states due to combined damage due to oxidative stress and tau hyperphosphorylation.
A general note: Immunoblotting shows a protein as a band on a membrane.

Data set [8] has as its target T2, human M1 receptor. In words: PI hydrolysis, human M1. In kind it is cell-based.

Take `CC1=NCC2(CCN(C)CC2)S1` [AF150(S), 2,8-Dimethyl-1-thia-3,8-diaza-spiro[4.5]dec-2-ene]: in data set [1], the “Maximal neurite outgrowth response (percent of cells with neurites)” value was found to be 30%. Also, in [2], the H2O2-induced toxicity entry is recorded as “protect the cells” and the “cell death induced by β-A25-35 (MTT)” value is listed as “significantly attenuated”. In [3], this compound displayed a biovailability in rats of 31%. Besides, in data set [4], the “neuroprotective potency against 200 μM NMDA, compared with 20 μM MK801” value is “slightly less” and the “prevention of NMDA-induced cell death” value is reported as “effective in prevention of cell death”. The “α-APPs secretion (% of max CCh)” value on M1 mAChR is listed as 50%.
On to `CC[C@@H]1SC2(CCN(C)CC2)NC1=O` [AF267B, (S)-2-ethyl-8-methyl-1-thia-4,8-diaza-spiro[4.5]decan-3-one], for which the “Maximal neurite outgrowth response (percent of cells with neurites)” value in data set [1] is listed as 60%. In [2], the H2O2-induced toxicity entry is on record as “protect the cells” and the “cell death induced by β-A25-35 (MTT)” value is on record as “significantly attenuated”. Further, the bioavailability in data set [3] (calculated for 2 mg/kg) is 30%. For the same compound, in data set [4], the “neuroprotective potency against 200 μM NMDA, compared with 20 μM MK801” value is listed as “slightly less” and the “prevention of NMDA-induced cell death” value is reported as “effective in prevention of cell death”. For the same compound, on M1 mAChR, the “α-APPs secretion, comparison in words” value is “more efficacious and more potent than its racemate”. For the same compound, the “α-APPs secretion, fold increase over control” value on M1 mAChR (10^−4 M, 1 hour) is given as “about 6 fold”. Further, in data set [5], the “Trihexyphenidyl-rats-Passive avoidance, effect” value is given as 0.5, 1, 5 positive effects and the “Trihexyphenidyl-rats-Passive avoidance, MED” value is “MED 0.1-0.5 mg/kg, p.o”. Moreover, on human M1 receptor [6], the “AA release vs. CCh (as 100%)” value is 100%. In [7] (Dogs., 1 mg/kg, p.o.), the bioavailability came out at 53% and the Tmax was 34.8 to 45 min. In the data set with tau, the “phosphorylated tau (AT8)” value is “induce dephosphorylation of tau proteins”. Also, on human M1 receptor [8], the “PI turnover vs. CCh (as 100%)” value is reported as roughly 66%.
In the case of `CC[C@@H]1SC2(CCNCC2)NC1=O` [AF292, (S)-2-Ethyl-1-thia-4,8-diaza-spiro[4.5]decan-3-one], in [2], the H2O2-induced toxicity result is “protect the cells”, the “MTT assay against Aβ 25-35 & H2O2 in cell cultures transfected with rat M1 mAChR” value was “Equipotent with AF267B & CCh at 100” and the “cell death induced by β-A25-35 (MTT)” value was “significantly attenuated”. Besides, in [3] (10 mg/kg, p.o.), the bioavailability is 49%. The compound also yielded a biovailability in rats in data set [3] of 49%. At M1 mAChR, the “α-APPs secretion, comparison in words” value was “Equipotent with AF267B” and the “α-APPs secretion (% of max CCh)” value was 100%. For the same compound, in data set [5], the “Trihexyphenidyl-rats-Passive avoidance, effect” value was “positive effects” and the “Trihexyphenidyl-rats-Passive avoidance, MED” value is on record as no more than 0.03 mg/kg. Also, in [5] (rat, in vivo), the “Trihexyphenidyl-rats-Passive avoidance, duration” value is recorded as “LONG DURATION OF ACTION” and the “potency among the tested agonists” value was “most potent compound among the tested agonists”. Also, at human M1 receptor [6], the “AA release vs. CCh (as 100%)” value is reported as greater than 88%. Moreover, the bioavailability in data set [7] (Dogs, 5 mg/kg. p.o.) was found to be 70%. Further, in the data set on tau, the “phosphorylated tau (AT8)” value is listed as “induce dephosphorylation of tau proteins”. Also, the “PI turnover vs. CCh (as 100%)” value on human M1 receptor [8] is roughly 35%.

Usually bioavailability stands for the share of a dose that reaches the circulation, judged against a reference dose that is usually intravenous. The Tmax is the time from dosing to the highest level.
